For experiment [1], the system named is Cryptocaryon irritans. The experiment in a line: Examples 3 and 4: oral administration of single inhibitors and a combination against Cryptocaryon irritans on Pagrus major. It is filed as in vivo. Conditions: 60 parasites per plot, P=<0.01. An excerpt:
During the rearing period, 1.4 liters/min. of seawater was supplied. […] After exposure, seven fish each were moved into six 100-liter aquariums. During the rearing period, 1.4 liters/min. of seawater was supplied.

Experiment [2] concerns Cryptocaryon irritans. Put plainly: Example 1: oral administration against parasitism of Cryptocaryon irritans on Pagrus major (1). Conditions: 50 mg trimethoprim/kg body weight/day orally for three days; three days after the exposure.
The mark [3] stands for this setting: 60 mg/kg fish body weight/day for three days.
Setting [4] is: 300 mg/kg fish body weight/day for three days.

Regarding `CN(Cc1cnc2nc(N)nc(N)c2n1)c1ccc(C(=O)N[C@@H](CCC(=O)O)C(=O)O)cc1` [MTX, methotrexate], the “growth rate of parasites (body length as percentage of control plot), difference to control plot” value in the experiment on Cryptocaryon irritans [1] (setting [3]) is reported as “statistically significant difference”.

`N=C(N)c1ccc(OCCCCCOc2ccc(C(=N)N)cc2)cc1.O=S(=O)(O)CCO.O=S(=O)(O)CCO` [PMD, isethionic acid pentamidine salt]: in the experiment with Cryptocaryon irritans [1] (setting [3]), the “growth rate of parasites (body length as percentage of control plot), difference to control plot” value is “statistically significant difference”.

As for `COc1cc(NS(=O)(=O)c2ccc(N)cc2)nc(OC)n1` [SDMX, sulfadimethoxine], in the experiment with Cryptocaryon irritans [1] (setting [4]), the “growth rate of parasites (body length as percentage of control plot), difference to control plot” value was “statistically significant difference”.

Consider `Cc1cc(NS(=O)(=O)c2ccc(N)cc2)nc(C)n1` [SID, sulfisomidine], for which the “growth rate of parasites (body length as percentage of control plot), difference to control plot” value in the experiment on Cryptocaryon irritans [1] (setting [4]) was “statistically significant difference”.

As to `Cc1ccnc(NS(=O)(=O)c2ccc(N)cc2)n1` [SMDN, sulfamerazine], the “growth rate of parasites (body length as percentage of control plot), difference to control plot” value in the experiment with Cryptocaryon irritans [1] (setting [4]) was “statistically significant difference”.

In the case of `COc1cc(NS(=O)(=O)c2ccc(N)cc2)ncn1` [SMMX, sulfamonomethoxine], the “growth rate of parasites (body length as percentage of control plot), difference to control plot” value in the experiment with Cryptocaryon irritans [1] (setting [4]) is “statistically significant difference”.

As to `Cc1nnc(NS(=O)(=O)c2ccc(N)cc2)s1` [SMZ, sulfamethizole], in the experiment on Cryptocaryon irritans [1] (setting [4]), the “growth rate of parasites (body length as percentage of control plot), difference to control plot” value was “statistically significant difference”.

Take `COc1cc(Cc2cnc(N)nc2N)cc(OC)c1OC` [TMP, trimethoprim]: the “growth rate of parasites (body length as percentage of control plot), difference to control plot” value in the experiment on Cryptocaryon irritans [1] (setting [3]) is “statistically significant difference”. The “number of parasites (left gills, FIG. 1) relative to control plot” value in the experiment with Cryptocaryon irritans [2] is recorded as “tend to be large”.

Regarding sulfisozole [SIZ], in the experiment with Cryptocaryon irritans [1] (setting [4]), the “growth rate of parasites (body length as percentage of control plot), difference to control plot” value is given as “statistically significant difference”.
